59 sequences from the supplement of paper PMC11208160 can be followed below.
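Note: IS621 recombinase and bridge RNA in Escherichia coli cells.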

The nature of the data set: recombinant barcode read abundance after kanamycin selection (control-corrected) (log10(CPM+1)); higher = more efficient recombination; sequences stand for … in AGTGCAGAGAAAATCGGCCAGTTTTCTCTGCCTGCAGTCCGCATGCCGT…AGATTTATGCAGCGGACTGCCTTTCTCCCAAAGTGATAAACCGGACAGTATCATGGACCGGTTTTCCCGGTAATCCGTATTTGCAAGGTTGGTTTCACT; site = the 11-nt target. In a few lines: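 IS621 bridge RNA target-binding loops were paired with targets in a pooled library tested in E. coli. After co-electroporation with a donor plasmid, cells were plated in two replicates on chloramphenicol/ampicillin LB agar (control) and on chloramphenicol/ampicillin/kanamycin carrying 0.1 mM IPTG. Barcodes at recombinant junctions were counted as counts per million, averaged and control-corrected to give recombination efficiency. Values are log10(CPM+1).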
As for “GTCCTATCTTGGGTTCTAACCTGTTGCAC (site CGAGGCCCTAA)”, the “recombinant barcode read abundance (log10)” value was 0.0371.
Under “GTCCTATCTTGGGTTCTAACCTGTTGCAC (site GTCCTATCTGT)” stands 1.98; under “GTCGATCCTTGGGTTCTAACCTGTTGCCT (site GACGATCCTAG)”, 0.69.
Regarding “GTCGATCCTTGGGTTCTAACCTGTTGCCT (site GCCGATCCTAG)”, the “recombinant barcode read abundance (log10)” value was 0.639.
Consider “GTCGATCCTTGGGTTCTAACCTGTTGCCT (site GGCGATCCTAG)”, for which the “recombinant barcode read abundance (log10)” value came out at 0.221.
Turning to “GTCGATCCTTGGGTTCTAACCTGTTGCCT (site GTCGATCCTAG)”, the “recombinant barcode read abundance (log10)” value was 1.68.
Take “GTCGCCTCTTGGGTTCTAACCTGTTGCCT (site GTCACCTCTAG)”: the “recombinant barcode read abundance (log10)” value came out at 0.157.
As for “GTCGCCTCTTGGGTTCTAACCTGTTGCCT (site GTCCCCTCTAG)”, the figure is 0.491.
As for “GTCGCCTCTTGGGTTCTAACCTGTTGCCT (site GTCGCCTCTAG)”, the figure is 0.297.
Under “GTCGCCTCTTGGGTTCTAACCTGTTGCCT (site GTCTCCTCTAG)” stands 0.0886.
Consider “GTCGGAGCTTGGGTTCTAACCTGTTGCAG (site GTCGGAGCTCA)”, for which the “recombinant barcode read abundance (log10)” value came to 0.681.
As for “GTCGGAGCTTGGGTTCTAACCTGTTGCAG (site GTCGGAGCTCC)”, the figure is 0.165; as for “GTCGGAGCTTGGGTTCTAACCTGTTGCAG (site GTCGGAGCTCG)”, 0.104; as for “GTCGGAGCTTGGGTTCTAACCTGTTGCAG (site GTCGGAGCTCT)”, 1.89.
As for “GTCGGGTCTTGGGTTCTAACCTGTTGCCT (site GTCCGGTCTAA)”, the figure is 0.054; as for “GTCGGGTCTTGGGTTCTAACCTGTTGCCT (site GTCGGGTCTAG)”, 1.47; as for “GTCGGTCCTTGGGTTCTAACCTGTTGCCG (site AGTTTAACTGT)”, 0.0178.
Under “GTCGGTCCTTGGGTTCTAACCTGTTGCCG (site GTCGGTCCTCG)” stands 1.04; under “GTCGTCCCTTGGGTTCTAACCTGTTGCCA (site GCCGTCCCTTA)”, 0.071; under “GTCGTCCCTTGGGTTCTAACCTGTTGCCA (site GTCGTCCCTTG)”, 0.231.
Take “GTCTATGCTTGGGTTCTAACCTGTTGCCT (site GACTATGCTAG)”: the “recombinant barcode read abundance (log10)” value worked out at 0.106.
“GTCTATGCTTGGGTTCTAACCTGTTGCCT (site GCCTATGCTAG)”: the “recombinant barcode read abundance (log10)” value was found to be 0.213.
As for “GTCTATGCTTGGGTTCTAACCTGTTGCCT (site GGCTATGCTAG)”, the figure is 0.185; as for “GTCTATGCTTGGGTTCTAACCTGTTGCCT (site GTCTATGCTAG)”, 0.0906; as for “GTCTCAACTTGGGTTCTAACCTGTTGCCT (site GTCTCAACTAG)”, 0.604.
For the sequence “GTCTCAACTTGGGTTCTAACCTGTTGCCT (site TTCTGAACTAG)”, the “recombinant barcode read abundance (log10)” value was determined as 0.0305.
Under “GTCTCATCTTGGGTTCTAACCTGTTGCAT (site AGTATCCCTCG)” stands 0.0153; under “GTCTCATCTTGGGTTCTAACCTGTTGCAT (site GTCTCATCTAT)”, 0.362; under “GTCTCTACTTGGGTTCTAACCTGTTGCGG (site GTCGCTACTCC)”, 0.
“GTCTCTACTTGGGTTCTAACCTGTTGCGG (site GTCTCTACTCC)”: the “recombinant barcode read abundance (log10)” value was 0.00855.
As for “GTCTCTCCTTGGGTTCTAACCTGTTGCAG (site AAGGGCTCTAA)”, the figure is 0.0245; as for “GTCTCTCCTTGGGTTCTAACCTGTTGCAG (site GTCTCTCCTCT)”, 0.0635; as for “GTCTCTCCTTGGGTTCTAACCTGTTGCCG (site GTCTCTCCTCG)”, 0.0734.
Under “GTCTCTCCTTGGGTTCTAACCTGTTGCCG (site GTGTCTCCTCG)” stands 0.0724.
Turning to “GTCTGATCTTGGGTTCTAACCTGTTGCCT (site GTCTAATCTAG)”, the “recombinant barcode read abundance (log10)” value turned out to be 0.0854.
As for “GTCTGATCTTGGGTTCTAACCTGTTGCCT (site GTCTCATCTAG)”, the figure is 0.113; as for “GTCTGATCTTGGGTTCTAACCTGTTGCCT (site GTCTGATCTAG)”, 0.97.
As for “GTCTGATCTTGGGTTCTAACCTGTTGCCT (site GTCTTATCTAG)”, the figure is 0.186; as for “GTCTGCCCTTGGGTTCTAACCTGTTGCCT (site GACTGCCCTAG)”, 0.181.
As for “GTCTGCCCTTGGGTTCTAACCTGTTGCCT (site GCCTGCCCTAG)”, the figure is 0.191.
With “GTCTGCCCTTGGGTTCTAACCTGTTGCCT (site GGCTGCCCTAG)”, the “recombinant barcode read abundance (log10)” value came to 0.239.
Under “GTCTGCCCTTGGGTTCTAACCTGTTGCCT (site GTCTGCCCTAG)” stands 1.73; under “GTCTTAACTTGGGTTCTAACCTGTTGCCG (site GTCTTAACTCG)”, 0.338; under “GTCTTAACTTGGGTTCTAACCTGTTGCCG (site GTCTTGACTTG)”, 0.0525.
Regarding “GTGAACTCTTGGGTTCTAACCTGTTGCCT (site GTAAACTCTAG)”, the “recombinant barcode read abundance (log10)” value came to 1.56.
Under “GTGAACTCTTGGGTTCTAACCTGTTGCCT (site GTCAACTCTAG)” stands 0.0453.
Under “GTGAACTCTTGGGTTCTAACCTGTTGCCT (site GTGAACTCTAG)” stands 1.85; under “GTGAACTCTTGGGTTCTAACCTGTTGCCT (site GTTAACTCTAG)”, 0.542; under “GTGAGATCTTGGGTTCTAACCTGTTGCCT (site GTGAGATCTAG)”, 1.06.
Under “GTGAGATCTTGGGTTCTAACCTGTTGCCT (site GTGGAATCTAG)” stands 0.079; under “GTGAGCCCTTGGGTTCTAACCTGTTGCCG (site GTGAGCCCTCG)”, 1.01; under “GTGAGCCCTTGGGTTCTAACCTGTTGCCG (site GTGCGCTCTCG)”, 0.0474.
Regarding “GTGAGTCCTTGGGTTCTAACCTGTTGCGG (site GTAAGTCCTTC)”, the “recombinant barcode read abundance (log10)” value amounted to 0.24.
As for “GTGAGTCCTTGGGTTCTAACCTGTTGCGG (site GTGAGTCCTCC)”, the figure is 2.42; as for “GTGATGTCTTGGGTTCTAACCTGTTGCCT (site GAGATGTCTAG)”, 0.701; as for “GTGATGTCTTGGGTTCTAACCTGTTGCCT (site GCGATGTCTAG)”, 0.321.
As for “GTGATGTCTTGGGTTCTAACCTGTTGCCT (site GGGATGTCTAG)”, the figure is 0.279; as for “GTGATGTCTTGGGTTCTAACCTGTTGCCT (site GTGATGTCTAG)”, 2.17.
As for “GTGCACTCTTGGGTTCTAACCTGTTGCGG (site GTGCACACTCC)”, the figure is 0.
